Source: patent publication US20100099762A1, “COMBINATION THERAPY” (THE MENTAL HEALTH RESEARCH INSTITUTE OF VICTORIA, priority 2006, published 2010)

Assays:
[1] = test system: bipolar disorder; assay: Double blind randomised placebo controlled trial of NAC in addition to treatment as usual in bipolar disorder; format: in vivo, human
From the text: Consented individuals were assigned using simple randomization (Beller et al., 2002) to treatment with NAC or placebo in addition to treatment as usual, in a double-blind fashion. The nature and dose of the primary therapy was monitored. The person generating the randomisation schedule was not involved in any aspect of participant interview. The investigators, clinicians and statisticians were blind to treatment allocation until the data analysis was completed. The study was registered with the Australian Clinical Trials Registry (Protocol #12605000362695). Participants were recruited through advertisements, their private psychiatrists and database screening. All participants provided written informed consent. The trial setting was in the public and private outpatient psychiatry clinics of the participating centers. The trial was approved by each participating research and ethics committee (Barwon Health, Southwest Area Mental Health Service, Bendigo Health, all in Victoria, Australia), and was conducted according to Good Clinical Practice guidelines.
All randomized participants received two NAC (500 mg) capsules twice daily (2 g daily), or matching placebo. We selected a daily dose that was at the upper dosing range for published clinical trials of oral NAC of 12 weeks to 12 months duration, and that reported evidence of tolerability and some efficacy (Adair et al., 2001; Van Schooten et al., 2002; Behr et al., 2002; Demedts et al., 2005).
Individuals needed to meet DSM-IV criteria for bipolar disorder (I or II) with at least 1 documented episode of illness (depressive, manic or mixed) in the previous 6 months, and had to have been on stable therapy for at least 1 month prior to randomisation. Participants were required to have the capacity to consent to the study and comply with study procedures, and utilise effective contraception where indicated.
Exclusion criteria included individuals with a known or suspected clinically relevant systemic medical disorder, including asthma, bronchospasm, or respiratory insufficiency, recent gastrointestinal ulcers, and individuals who were pregnant or lactating. Individuals taking greater than 500 mg of NAC/day, 200 μg of selenium/day or 500 IU of Vitamin E/day were excluded, as were those with a history of anaphylaxis with NAC or any component of the preparation. Inability to comply with either the requirements of informed consent or the treatment protocol was also an exclusion criterion.
Withdrawal from the study occurred if participants ceased taking their trial medication for 7 consecutive days, stopped effective contraception or became pregnant. Dose changes to existing medications, or the addition or removal of an agent were accepted, and participants were allowed to continue with the study. Participants were withdrawn from the study if they revoked their consent or developed serious adverse events associated with the study drug, which could occur either at the request of the patient or the discretion of the investigator.
Participants were assessed at baseline using a structured clinical interview (MINI-plus) and underwent a physical examination. Clinical status was assessed using the MADRS, BDRS, YMRS, CGI-Improvement and Severity scales for bipolar disorder (CGI-I-BP, CGI-S-BP), GAF, SOFAS, SLICE/LIFE, LIFE RIFT, and Q-LES-Q.
These scales were repeated 2 weekly for the first 4 weeks and 4-weekly thereafter for a total of 24 weeks, or on the day of study termination if the patient withdrew prior to the final scheduled visit. A follow-up visit was conducted 4 weeks (±2 weeks) after the trial completion, either at trial endpoint (week 24), or premature discontinuation, to determine any change in clinical status on treatment discontinuation.
Time to any intervention for mood symptoms was a further outcome measure. […]

[2] = test system: plasma glutathione; assay: Parallel study of plasma glutathione at the trial dose of NAC; format: in vivo; conditions: NAC at this dose (2 g daily)
[3] = oral NAC; cited from earlier work
[4] = in vivo; cited from earlier work
[5] = NAC 2 g daily plus treatment as usual, week 24
[6] = post-treatment discontinuation (washout, week 28)
[7] = week 24, MMRM, between treatment group LS mean difference

Structure (SMILES): CC(=O)N[C@@H](CS)C(=O)O [NAC, N-acetyl cysteine]
- BDRS: End point to Week 24 (Mean ± SD), NAC [1, 5]: 6.7 (6.4)
- CGI-I-BP: End point to Week 24 (Mean ± SD), NAC [1, 5]: 3.1 (1.6)
- CGI-I-D: End point to Week 24 (Mean ± SD), NAC [1, 5]: 3.2 (1.6)
- CGI-I-M: End point to Week 24 (Mean ± SD), NAC [1, 5]: 3.7 (1.1)
- CGI-S-BP: End point to Week 24 (Mean ± SD), NAC [1, 5]: 2.5 (1.2)
- CGI-S-D: End point to Week 24 (Mean ± SD), NAC [1, 5]: 2.3 (1.1)
- CGI-S-M: End point to Week 24 (Mean ± SD), NAC [1, 5]: 1.9 (1.2)
- GAF: End point to Week 24 (Mean ± SD), NAC [1, 5]: 71.3 (13.9)
- LIFE-RIFE: End point to Week 24 (Mean ± SD), NAC [1, 5]: 8.9 (3.3)
- MADRS: End point to Week 24 (Mean ± SD), NAC [1, 5]: 6.6 (7.4)
- Q-LES-Q: End point to Week 24 (Mean ± SD), NAC [1, 5]: 59.2 (12.7)
- SLICE-LIFE: End point to Week 24 (Mean ± SD), NAC [1, 5]: 14.9 (5.2)
- SOFAS: End point to Week 24 (Mean ± SD), NAC [1, 5]: 73.7 (13.4)
- YMRS: End point to Week 24 (Mean ± SD), NAC [1, 5]: 2.1 (3.3)
- Adverse event: headaches ([1]; NAC group, placebo 8%): 18%
- Adverse event: heartburn ([1]; NAC group, placebo 8%): 16%
- Adverse event: increased pain in joints ([1]; NAC group, placebo 8%): 16%
- Adverse event: changed energy ([1]; NAC group, placebo 27%): 21%
- Time to a mood episode (Kaplan Meier) ([1]; NAC versus placebo, log-rank test): did not reveal any significant differences
- Effect sizes (Cohen's d) on all rating scales ([1]; after 24 weeks of NAC treatment): moderate to large effects
- Treatment benefit at the post discontinuation visit ([1]; any of the scales, week 28): not evident
- Adverse events, NAC group compared to placebo group ([1]; checklist of 44 somatic items): No reported event was significantly more common
- Serious adverse events (SAE) in the group ([1]; of the 7 reported, 4 in placebo group): 3
- BDRS: Post-treatment to Week 28 (Mean ± SD), NAC [1, 6]: 12.1 (10.8)
- CGI-I-BP: Post-treatment to Week 28 (Mean ± SD), NAC [1, 6]: 3.5 (1.5)
- CGI-I-D: Post-treatment to Week 28 (Mean ± SD), NAC [1, 6]: 3.7 (1.7)
- CGI-I-M: Post-treatment to Week 28 (Mean ± SD), NAC [1, 6]: 3.7 (1.0)
- CGI-S-BP: Post-treatment to Week 28 (Mean ± SD), NAC [1, 6]: 3.1 (1.5)
- CGI-S-D: Post-treatment to Week 28 (Mean ± SD), NAC [1, 6]: 3.1 (1.7)
- CGI-S-M: Post-treatment to Week 28 (Mean ± SD), NAC [1, 6]: 1.9 (0.9)
- GAF: Post-treatment to Week 28 (Mean ± SD), NAC [1, 6]: 66.6 (14.7)
- LIFE-RIFE: Post-treatment to Week 28 (Mean ± SD), NAC [1, 6]: 10.8 (4.2)
- MADRS: Post-treatment to Week 28 (Mean ± SD), NAC [1, 6]: 12.2 (11.6)
- Q-LES-Q: Post-treatment to Week 28 (Mean ± SD), NAC [1, 6]: 52.8 (11.4)
- SLICE-LIFE: Post-treatment to Week 28 (Mean ± SD), NAC [1, 6]: 17.2 (6.0)
- SOFAS: Post-treatment to Week 28 (Mean ± SD), NAC [1, 6]: 66.9 (16.2)
- YMRS: Post-treatment to Week 28 (Mean ± SD), NAC [1, 6]: 2.8 (3.4)
- Response, defined as a 50% reduction in total MADRS score, participants ([1]; week 20 compared to baseline, placebo 21): 46%
- CGI-I-BP: NAC-Placebo at Endpoint LS Mean [1, 7]: −0.67
- CGI-I-D: NAC-Placebo at Endpoint LS Mean [1, 7]: −0.62
- CGI-I-M: NAC-Placebo at Endpoint LS Mean [1, 7]: −0.05
- CGI-S-D: NAC-Placebo at Endpoint LS Mean [1, 7]: −0.67
- CGI-S-M: NAC-Placebo at Endpoint LS Mean [1, 7]: −0.03
- Response, defined as a 50% reduction in total MADRS score, participants ([1]; week 24 compared to baseline, placebo 18): 51%
- Plasma glutathione [2]: significantly increased
- Plasma half-life [3]: 2 to 3 h
- Human dosing without adverse effects [4]: up to 5 g/day
